Values after ≈ are worked out from the molar mass of the structure shown.
Legend:
Type in all cases: cell-based
Hsc70 [1] = experiment: Inhibition effects of compound on Hsc70 in Huh7.5 cultured cell (qRT-PCR, Western blotting); set-up: key to Hsc70 down-regulation rate (%): “—” represents no significant inhibition rate
Protocol: 2×10^5/ml Huh7.5 cells (purchased from Vertex Pharmaceutical Co., USA) were inoculated in an amount of 3 ml on 6-well culture plate, placed in an incubator with 37° C., 5% CO2 content, saturation humidity, and cultured for 24 h, added with different drug solutions (DM122) formulated with culture medium, and cell control was set. Cultivation was continuously performed in the incubator with 37° C., 5% CO2 content, saturation humidity for 24 h, a kit for RNA extraction was used to extract intracellular RNA from the cells, and one-step qRT-PCR was used to determine intracellular contents of Hsc70 and GAPDHRNA. After the cultivation of cells was performed for 48 h, the cells were digested and harvested, then the cells were split with CytoBuster™ Protein Extraction Buffer that contained many kinds of protease inhibitors, total intracellular proteins were extracted, and Western blotting was used to analyze the contents of Hsc70 and GAPDH proteins. In comparison with the cell control, the inhibition effects on Hsc70 upon action of different drugs were analyzed.

HCV = experiment: Inhibition effects of compounds on HCV in Huh7.5 cultured cell after HCV infection; details: for EC50 (half effective concentration): virus not given, stands beside HCV inhibition rate
Protocol: 1×10^5/ml Huh7.5 cells (purchased from Vertex Pharmaceutical Co., USA) were inoculated in an amount of 0.1 ml on 96-well culture plate, placed in an incubator with 37° C., 5% CO2 content and saturation humidity, and cultured for 24 h, HCV virus in 45 IU/cell was used to infect Huh7.5, different drug solutions (DM122) formulated with culture medium were added, and cell control and HCV infection control were set. Cultivation was continuously performed in the incubator with 37° C., 5% CO2 content and saturation humidity for 72 h, kit for RNA extraction was used to extract intracellular RNA, one-step qRT-PCR was used to determine intracellular contents of HCV and GAPDH RNA, and the inhibition effects of drug on HCV infection was analyzed. […] In comparison with the virus control group, the inhibition effects on HCV infection upon action of different drugs were analyzed. […] This experiment was repeated for 3 times, * indicated […] in comparison with control, ** indicated p<0.01 in comparison with control.

2.2.15 cells = experiment: Drug TC50 by MTT detection; details: Reed-Muench
Protocol: 2.2.15 cells (all cells were purchased from Vertex Pharmaceutical Co., USA) in exponential growth phase were inoculated on 96-well culture plate, 2×10^5 cells/well, added with culture media containing PFA diluted in different concentration rates, 3 wells for each diluted concentration, placed in 37° C. CO2—containing incubator and cultivated for 48 h; the supernatant was discarded, 100 μl of MTT (0.5 mg/ml) in culture medium was added, cultivation was continuously performed at 37° C. for 4 h; each well was added to 100 μl of 50% DMF-20% SDS destaining solution, stood at 37° C. overnight; ELISA was used to measure optical density at wavelength of 570 nm (0D570).
In each experiment, 3 cell control wells and 3 blank controls well were set, the results were used in formula, (cell control OD570-drug-medicated cell OD570)/cell control OD570, to calculate cell death rate (%), and Reed-Muench method was used to calculate half toxic concentration TC50.

Hsc70 [2] = experiment: Detection of Hsc70 gene expression level upon action of compound on 2.2.15 cells (real-time fluorescent quantified PCR); set-up: Hsc70 mRNA / Hsc70 down-regulation rate (%): unit not given here; details: for Hsc70 inhibition rate (down-regulation of Hsc70 expression activity, expressed in relative OMT ratio): 2.2.15 cells, relative to OMT (= 1); for Hsc70 down-regulation rate (%): single value, concentration not given, values coincide with Table 1 relative OMT ratios
Protocol: 2.2.15 cells (purchased from Vertex Pharmaceutical Co., USA) in a number of 1×10^6 were inocubated to 6-well plate, cultured in a culture medium containing 10% fetal calf serum for 24 hr, the original culture medium was discarded, replaced with a culutre medium containing 400 μg/ml OMTR, which was used as control. Compounds were firstly dissolved in MEM to form 20 mg/ml mother liquid, which was diluted with culture medium when used and then applied to cells. The compounds of Examples 1-114 were separately used for treatment for 12, 24, 36 hr, then cells were harvested for extraction of RNA and DNA, then the changes of Hsc70 mRNA and HBV DNA were detected by real-time fluorescent quantified PCR.

Molecule | Hsc70 down-regulation rate (%) (Hsc70 [1]; 200 ug/ml (upper data)) | Hsc70 down-regulation rate (%) (Hsc70 [1]; 400 ug/ml (lower data)) | HCV inhibition rate (%) (HCV; 200 ug/ml (upper data)) | HCV inhibition rate (%) (HCV; 400 ug/ml (lower data)) | EC50 (half effective concentration) (HCV) [µg/mL] | CC50 (concentration to cause poisoning in half cells) (2.2.15 cells) [µg/mL] | Hsc70 inhibition rate (down-regulation of Hsc70 expression activity, expressed in relative OMT ratio) (Hsc70 [2]) | Hsc70 down-regulation rate (%) (Hsc70 [2])
COc1ccc(C(=O)N2CC3CCCN4CCCC(C34)C2CCCC(=O)O)cc1 (centres unmarked) [DM-151, N-(4-methoxybenzoyl) matrinic acid] | — | 11.5 ± 2.4% | 20.5 ± 3.2 | 53.4 ± 5.6 |  |  |  | 
N#Cc1ccc(C(=O)N2CC3CCCN4CCCC(C34)C2CCCC(=O)O)cc1 (centres unmarked) [DM-152, N-(4-cyanobenzoyl) matrinic acid] |  |  |  |  | 125.65 (≈ 318 µM) | >1000 |  | 
O=C(O)CCCC1C2CCCN3CCCC(CN1Cc1ccc(Cl)cc1)C23 (centres unmarked) [DM-126, N-(4-chlorobenzyl) matrinic acid] |  |  |  |  | 21.11 (≈ 54 µM) | >1000 | 0.62 | 0.62
N-(4-ethenyl benzyl) matrinic acid [DM-136] |  |  |  |  | 1.80 | 70.49 | 0.76 | 0.76
O=C(O)C=CCC1C2CCCN3CCCC(CN1S(=O)(=O)c1ccc(C(F)(F)F)cc1)C23 (centres unmarked) [SC-84a, N-(p-trifluoromethylbenzene sulfonyl) sophocarpinic acid] |  |  |  |  | 7.54 (≈ 16 µM) | 530.07 (≈ 1120 µM) |  | 
O=C(O)CCC[C@@H]1[C@H]2CCCN3CCC[C@@H](CN1C(=O)c1cccc([N+](=O)[O-])c1)[C@@H]23 [DM-121, N-(3-nitrobenzoyl) matrinic acid] | — | — |  | 14.9 ± 9.0 |  |  | 0.23 | 
O=C(O)CCCC1C2CCCN3CCCC(CN1Cc1cccc(Cl)c1)C23 (centres unmarked) [DM-125, N-(3-chlorobenzyl) matrinic acid] |  |  |  |  | 34.35 (≈ 87.9 µM) | >1000 | <10 | −67.97
Cc1ccc([N+](=O)[O-])cc1C(=O)N1C[C@H]2CCCN3CCC[C@@H]([C@H]23)[C@H]1CCCC(=O)O [Compound L2, (5R)—N-(2-methyl-5-nitrobenzoyl)matrinic acid] | 76.6 ± 2.5% | 32.7 ± 5.0% | 27.9 ± 16.3 | 5.3 ± 5.1 |  |  |  | 
O=C(O)CCCC1C2CCCN3CCCC(CN1Cc1ccc(Br)cc1)C23 (centres unmarked) [DM-128, N-(4-bromobenzyl) matrinic acid] |  |  |  |  | 51.66 (≈ 119 µM) | 535.1 (≈ 1230 µM) | −5.78 | −5.78
O=C(O)CCC[C@@H]1[C@H]2CCCN3CCC[C@@H](CN1C(=O)c1ccc(C(F)(F)F)cc1)[C@@H]23 [DM-155, N-(4-trifluoromethylbenzoyl) matrinic acid] |  |  |  |  | >333.33 | >1000 |  | 
N#Cc1ccc(CN2C[C@@H]3CCCN4CCC[C@@H]([C@H]34)[C@H]2CCCC(=O)O)cc1 [DM-134, N-(4-cyanobenzyl) matrinic acid] |  |  |  |  | 52.18 (≈ 137 µM) | >1000 | 0.57 | 0.57
Cc1ccc([N+](=O)[O-])cc1C(=O)N1C[C@@H]2CCCN3CCC[C@@H]([C@H]23)[C@H]1CCCC(=O)O [DM-131, N-(2-methyl-5-nitrobenzoyl) matrinic acid] |  |  |  |  | 89.31 (≈ 208 µM) | >1000 | −0.86 | −0.86
O=C(O)CCCC1C2CCCN3CCCC(CN1Cc1cccc(Cl)c1Cl)C23 (centres unmarked) [DM-129, N-(2,3-dichlorobenzyl) matrinic acid] |  |  |  |  | 192.02 (≈ 451 µM) | 245.5 (≈ 577 µM) | 0.27 | 0.27
O=C(O)CCCC1C2CCCN3CCCC(CN1C(=O)c1ccc(F)cc1)C23 (centres unmarked) [DM-154, N-(4-fluorobenzoyl) matrinic acid] |  |  |  |  | >333.33 | >1000 |  | 
O=C(O)CCCC1C2CCCN3CCCC(CN1Cc1ccccn1)C23 (centres unmarked) [DM-143, N-(pyridin-2-yl) methyl matrinic acid] |  |  |  |  | 12.46 (≈ 34.9 µM) | 374.5 (≈ 1050 µM) | 1.1 | 1.1
Cc1ccc(C(=O)N2C[C@@H]3CCCN4CCC[C@@H]([C@H]34)[C@H]2CCCC(=O)O)cc1 [DM-153, N-(4-methylbenzoyl) matrinic acid] | 38.6 ± 15.8% | 32.6 ± 14. % | 47.8 ± 9.4 | 29.2 ± 29.5 |  |  |  | 
O=C(O)CCCC1C2CCCN3CCCC(CN1Cc1cccc4ccccc14)C23 (centres unmarked) [DM-148, N-(naphthyl-1-yl) methyl matrinic acid] |  |  |  |  | >333.3 | 529.86 (≈ 1300 µM) |  | 
O=C(O)CCCC1C2CCCN3CCCC(CN1Cc1cccnc1)C23 (centres unmarked) [DM-144, N-(pyridin-3-yl) methyl matrinic acid] |  |  |  |  | 31.8 (≈ 89 µM) | >1000 |  | 
O=C(O)CCCC1C2CCCN3CCCC(CN1Cc1ccncc1)C23 (centres unmarked) [DM-145, N-(pyridin-4-yl)methyl matrinic acid] |  |  |  |  | 117.2 (≈ 328 µM) | >1000 |  | 
O=C(O)CCCC1C2CCCN3CCCC(CN1C(=O)c1cccc([N+](=O)[O-])c1)C23 [Compound L9, (5R)—N-(3-nitrobenzoyl)matrinic acid] | 20.1 ± 11.1% | — | 62.5 ± 0.3 | 68.9 ± 3.8 |  |  |  | 
O=C(O)CCC[C@@H]1[C@H]2CCCN3CCC[C@@H](CN1Cc1cscn1)[C@@H]23 [DM-146, N-(thiazol-4-yl)methyl matrinic acid] |  |  |  |  | 63.99 (≈ 176 µM) | >1000 | 0.92 | 0.92
O=C(O)CCCC1C2CCCN3CCCC(CN1Cc1ccccc1Cl)C23 (centres unmarked) [DM-124, N-(2-chlorobenzyl) matrinic acid] |  |  |  |  | 68.27 (≈ 175 µM) | 504.6 (≈ 1290 µM) | 0.32 | 0.32
COc1ccc(C(=O)N2CC3CCCN4CCCC(C34)C2CCCC(=O)O)cc1 [Compound L11, (5R)—N-(p-methoxybenzoyl)matrinic acid] | 31.4 ± 12.2% | — | 46.7 ± 12.7 | 61.6 ± 3.9 |  |  |  | 
N#Cc1cccc(S(=O)(=O)N2CC3CCCN4CCCC(C34)C2CC=CC(=O)O)c1 (centres unmarked) [SC-89b, N-(m-cyanobenzenesulfonyl) sophocarpinic acid] |  |  |  |  | 3.98 (≈ 9.27 µM) | 123.08 (≈ 287 µM) |  | 
